From ChEMBL document CHEMBL1201862, “PubChem BioAssay data set” (2004)
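Tested at 5 concentrations; 48 h exposure; 96-well plates; endpoints linearly interpolated, else capped at highest concentration. At the GI50, growth is halved.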 Calls of active or inactive are those of the source. Cut-off read from the data, not from the text of the source: active = GI50 up to about 1.1 µM and inactive = higher.

What was measured:
Assay in all cases: inhibition of tumour cell growth, NCI panel, 48 h
786-0 = test system: 786-0
EKVX = test system: EKVX
HCT-116 = test system: HCT-116
HOP-92 = test system: HOP-92
IGROV-1 = test system: IGROV-1
K562 = test system: K562
LOX IMVI = test system: LOX IMVI
M14 = test system: M14
MDA-MB-435 = test system: MDA-MB-435
MDA-N = test system: MDA-N
NCI-H460 = test system: NCI-H460
OVCAR-5 = test system: OVCAR-5
PC-3 = test system: PC-3
RXF 393 = test system: RXF 393
SF-295 = test system: SF-295
SR = test system: SR
T47D = test system: T47D
TK-10 = test system: TK-10
UACC-62 = test system: UACC-62
BT-549 = test system: BT-549

Measured: GI50

O=[N+]([O-])c1ccc(/C=N/n2c(S)nnc2CCc2nnc(S)n2/N=C/c2ccc([N+](=O)[O-])o2)o1
inactive: 786-0 17.1 µM | EKVX > 100 µM | HCT-116 15.3 µM | HOP-92 17.2 µM | IGROV-1 44.3 µM | K562 28.6 µM | LOX IMVI 20.4 µM | M14 19.2 µM | MDA-MB-435 17.6 µM | MDA-N 13.8 µM | NCI-H460 84.5 µM | OVCAR-5 > 100 µM | PC-3 82.6 µM | RXF 393 16.7 µM | SF-295 > 100 µM | SR 28.3 µM | T47D 23.1 µM | TK-10 84.1 µM

Clc1ccc(Cl)c(/N=N\c2cc3c4c(c2)CCN4CCC3)c1
inactive: 786-0 > 10 µM | EKVX > 10 µM | HCT-116 > 10 µM | HOP-92 > 10 µM | IGROV-1 > 10 µM | K562 > 10 µM | LOX IMVI > 10 µM | M14 > 10 µM | MDA-MB-435 > 10 µM | MDA-N > 10 µM | NCI-H460 > 10 µM | PC-3 > 10 µM | RXF 393 8.65 µM | SF-295 > 10 µM | SR > 10 µM | T47D > 10 µM | TK-10 > 10 µM | UACC-62 > 10 µM

COc1cc(/C=C(\C#N)c2ccccn2)cc(Br)c1O
inactive: 786-0 68.7 µM | BT-549 34.1 µM | EKVX 97.5 µM | HCT-116 > 100 µM | IGROV-1 54.7 µM | K562 4.48 µM | M14 34.2 µM | MDA-N > 100 µM | NCI-H460 36.3 µM | OVCAR-5 > 100 µM | PC-3 68.1 µM | RXF 393 46.2 µM | SF-295 37.8 µM | SR 22.7 µM | TK-10 > 100 µM | UACC-62 55.7 µM

Cc1ccc(-c2c(C#N)c(-c3ccc(C)cc3)n(NS(=O)(=O)c3ccccc3)c(=O)c2C#N)cc1
inactive: 786-0 54.1 µM | BT-549 25.4 µM | EKVX 56.6 µM | HCT-116 31.1 µM | HOP-92 28.6 µM | IGROV-1 44.5 µM | K562 49.2 µM | LOX IMVI 35 µM | M14 40.6 µM | MDA-MB-435 61.1 µM | NCI-H460 40.9 µM | OVCAR-5 > 100 µM | PC-3 28.9 µM | RXF 393 35.3 µM | SF-295 32.5 µM | TK-10 76.2 µM | UACC-62 34.1 µM

CC(=O)Nc1ccc(NCC(=O)Nn2cnc3ccc(S(=O)(=O)Nc4ccc(NC(C)=O)cc4)cc3c2=O)cc1
inactive: 786-0 > 100 µM | BT-549 > 100 µM | EKVX > 100 µM | HCT-116 > 100 µM | HOP-92 > 100 µM | IGROV-1 > 100 µM | K562 > 100 µM | LOX IMVI > 100 µM | M14 > 100 µM | MDA-MB-435 > 100 µM | MDA-N > 100 µM | NCI-H460 > 100 µM | OVCAR-5 > 100 µM | PC-3 > 100 µM | SF-295 > 100 µM | SR > 100 µM | TK-10 > 100 µM | UACC-62 > 100 µM

COc1cc(OC)c(C2c3cc4c(cc3OC(N3CCOCC3)C2C)OCO4)c(OC)c1 (centres undefined)
inactive: 786-0 40.7 µM | EKVX 80.5 µM | HCT-116 7.4 µM | IGROV-1 22.1 µM | K562 40.8 µM | LOX IMVI 23.2 µM | M14 53.1 µM | MDA-MB-435 38.7 µM | MDA-N 72.6 µM | NCI-H460 16.4 µM | OVCAR-5 65.5 µM | PC-3 42.3 µM | SF-295 14.7 µM | SR 18 µM | T47D 17.7 µM | TK-10 > 100 µM | UACC-62 29.9 µM

Clc1cc(N/N=C(/c2ccccc2)c2ncccn2)ncn1
inactive: 786-0 21.7 µM | BT-549 38.5 µM | EKVX 17 µM | HCT-116 7.26 µM | HOP-92 14.7 µM | IGROV-1 17.5 µM | K562 9.1 µM | M14 29 µM | MDA-MB-435 48.3 µM | MDA-N 62.8 µM | NCI-H460 19.3 µM | OVCAR-5 85.5 µM | PC-3 32.7 µM | RXF 393 19.8 µM | SF-295 24.6 µM | SR 30.2 µM | UACC-62 32.2 µM

CCc1ccc2oc(=O)ccc2c1
inactive: 786-0 > 100 µM | BT-549 > 100 µM | EKVX 32.2 µM | HCT-116 > 100 µM | HOP-92 > 100 µM | IGROV-1 > 100 µM | K562 > 100 µM | LOX IMVI > 100 µM | M14 > 100 µM | MDA-MB-435 > 100 µM | MDA-N > 100 µM | NCI-H460 > 100 µM | OVCAR-5 > 100 µM | PC-3 > 100 µM | RXF 393 > 100 µM | SF-295 > 100 µM | SR > 100 µM | UACC-62 35.7 µM
